Values joined by “and” are separate entries in the source; they are usually repeats but may differ in a detail not shown here. Equal entries are not always repeated. Inconclusive results and toxic doses are left out. How the source made its calls: active means survival T/C of 150% or more; inactive means T/C below 125% in these data.
Test system: P388 leukemia ip, CD2F1 mice, survival T/C
Experiment: NCI In Vivo Anticancer Drug Screen. Data for tumor model P388 Leukemia (intraperitoneal) in CD2F1 (CDF1) mice
Conditions: endpoint: median survival time, higher = longer survival
Summary of the method: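 Mice carrying the transplanted tumor received test compound or vehicle. Survival was recorded in each group, and the value is the treated-group measurement divided by that of the vehicle-treated control group.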

[1] = dose: 60.0 mg/kg/injection, schedule: Q01DX005 (ip), vehicle: saline with Tween-80
[2] = dose: 120.0 mg/kg/injection, schedule: Q01DX005 (ip), vehicle: saline with Tween-80
[3] = dose: 240.0 mg/kg/injection, schedule: Q01DX005 (ip), vehicle: saline with Tween-80
[4] = dose: 50.0 mg/kg/injection, schedule: Q01DX005 (ip), vehicle: Klucel (hydroxypropylcellulose) (HPC)
[5] = dose: 100.0 mg/kg/injection, schedule: Q01DX005 (ip), vehicle: Klucel (hydroxypropylcellulose) (HPC)
[6] = dose: 200.0 mg/kg/injection, schedule: Q01DX005 (ip), vehicle: Klucel (hydroxypropylcellulose) (HPC)
[7] = dose: 50.0 mg/kg/injection, schedule: Q01DX005 (ip), vehicle: saline with Tween-80
[8] = dose: 100.0 mg/kg/injection, schedule: Q01DX005 (ip), vehicle: saline with Tween-80
[9] = dose: 200.0 mg/kg/injection, schedule: Q01DX005 (ip), vehicle: saline with Tween-80
[10] = dose: 50.0 mg/kg/injection, schedule: Q01DX009 (ip), vehicle: saline with Tween-80
[11] = dose: 12.5 mg/kg/injection, schedule: Q01DX009 (ip), vehicle: saline with Tween-80
[12] = dose: 25.0 mg/kg/injection, schedule: Q01DX009 (ip), vehicle: saline with Tween-80
[13] = dose: 50.0 mg/kg/injection, schedule: Q01DX009 (ip), vehicle: saline

Measured: T/C

CSC(SC)(C(=O)O)c1cc(C)no1
inactive: [1] 107 % of control | [2] 102 % of control | [3] 102 % of control

CC1CCC2(CC1)CC(=O)N(N1CCOCC1)C(=O)C2
inactive: dose: 60.0 mg/kg/injection, schedule: Q01DX005 (ip), vehicle: suspension in saline 99 % of control | dose: 120.0 mg/kg/injection, schedule: Q01DX005 (ip), vehicle: suspension in saline 99 % of control | dose: 240.0 mg/kg/injection, schedule: Q01DX005 (ip), vehicle: suspension in saline 102 % of control

Brc1ccc2c(ccc3c2nnc2nccn23)c1
inactive: dose: 60.0 mg/kg/injection, schedule: Q01DX005 (ip), vehicle: Klucel (hydroxypropylcellulose) (HPC) 91 % of control and 95 % of control | dose: 120.0 mg/kg/injection, schedule: Q01DX005 (ip), vehicle: Klucel (hydroxypropylcellulose) (HPC) 97 % of control | dose: 240.0 mg/kg/injection, schedule: Q01DX005 (ip), vehicle: Klucel (hydroxypropylcellulose) (HPC) 86 % of control and 94 % of control

CC(=O)Nc1nc([N+](=O)[O-])c(C(C)C)s1
inactive: dose: 100.0 mg/kg/injection, schedule: Q01DX001 (ip), vehicle: saline with Tween-80 98 % of control | dose: 200.0 mg/kg/injection, schedule: Q01DX001 (ip), vehicle: saline with Tween-80 97 % of control | dose: 400.0 mg/kg/injection, schedule: Q01DX001 (ip), vehicle: saline with Tween-80 93 % of control

CC(=O)OCC(C)[C@H](C)C(=O)C1OCOC(C2CC(=O)NC(=O)C2)[C@@H]1OC(C)=O (some centres undefined)
inactive: dose: 0.01 mg/kg/injection, schedule: Q01DX009 (ip), vehicle: distilled water + alcohol 100 % of control | dose: 0.03 mg/kg/injection, schedule: Q01DX009 (ip), vehicle: distilled water + alcohol 98 % of control | dose: 0.06 mg/kg/injection, schedule: Q01DX009 (ip), vehicle: distilled water + alcohol 98 % of control | dose: 0.12 mg/kg/injection, schedule: Q01DX009 (ip), vehicle: distilled water + alcohol 100 % of control

Cc1ccc(S(=O)(=O)C(CCS(C)(=O)=O)C(=O)c2ccccc2)cc1 (centres undefined)
inactive: [1] 100 % of control and 93 % of control | [2] 92 % of control | [3] 88 % of control and 90 % of control and 91 % of control

NN1C(=O)C2C3C=CC(C4CC34)C2C1=O (centres undefined)
inactive: dose: 6.25 mg/kg/injection, schedule: Q01DX009 (ip), vehicle: Klucel (hydroxypropylcellulose) (HPC) 100 % of control | dose: 12.5 mg/kg/injection, schedule: Q01DX009 (ip), vehicle: Klucel (hydroxypropylcellulose) (HPC) 110 % of control

CC(=O)n1oc2ccc(Br)cc2c1=O
inactive: [4] 100 % of control | [5] 95 % of control | [6] 100 % of control

CCc1nc2c(cnn2C)c(=O)n1-c1ccccc1
inactive: [4] 101 % of control | [5] 100 % of control | [6] 96 % of control

Brc1nsc(SSc2nc(Br)ns2)n1
inactive: [4] 103 % of control | [5] 103 % of control | [6] 102 % of control

O=C1C(CCl)(CCl)CCC12CN=C(Cl)C2 (centres undefined)
inactive: [7] 100 % of control | [8] 100 % of control | [9] 106 % of control

CC1=NNB(O)c2sccc21
inactive: [10] 90 % of control | dose: 100.0 mg/kg/injection, schedule: Q01DX009 (ip), vehicle: saline with Tween-80 100 % of control | dose: 200.0 mg/kg/injection, schedule: Q01DX009 (ip), vehicle: saline with Tween-80 91 % of control

C=C(C(=O)OC)C1C=CCC1 (centres undefined)
inactive: dose: 12.5 mg/kg/injection, schedule: Q01DX009 (ip), vehicle: distilled water + Tween-80 100 % of control | dose: 25.0 mg/kg/injection, schedule: Q01DX009 (ip), vehicle: distilled water + Tween-80 100 % of control | dose: 50.0 mg/kg/injection, schedule: Q01DX009 (ip), vehicle: distilled water + Tween-80 111 % of control | dose: 100.0 mg/kg/injection, schedule: Q01DX009 (ip), vehicle: distilled water + Tween-80 101 % of control | dose: 200.0 mg/kg/injection, schedule: Q01DX009 (ip), vehicle: distilled water + Tween-80 86 % of control

ClCSc1nc2ccccc2o1
inactive: dose: 50.0 mg/kg/injection, schedule: Q04DX002 (ip), vehicle: saline with Tween-80 102 % of control | dose: 100.0 mg/kg/injection, schedule: Q04DX002 (ip), vehicle: saline with Tween-80 102 % of control | dose: 200.0 mg/kg/injection, schedule: Q04DX002 (ip), vehicle: saline with Tween-80 107 % of control

CC(=O)N1C(=O)C2C3C=CC(C3)C2C(=O)N1C(C)=O (centres undefined)
inactive: dose: 6.25 mg/kg/injection, schedule: Q01DX009 (ip), vehicle: saline with Tween-80 96 % of control | [11] 97 % of control | [12] 102 % of control | [10] 106 % of control and 86 % of control

Cc1cc(C)[n+](C)c2cc3ccccc3cc12
inactive: dose: 12.5 mg/kg/injection, schedule: Q01DX005 (ip), vehicle: saline with Tween-80 115 % of control | [7] 109 % of control

ClC1=CCCCC1
inactive: dose: 25.0 mg/kg/injection, schedule: Q01DX009 (ip), vehicle: saline 100 % of control | [13] 100 % of control | dose: 100.0 mg/kg/injection, schedule: Q01DX009 (ip), vehicle: saline 110 % of control

C=CCn1c(=O)n(CC)c(=O)c2[nH]c(C(F)(F)F)nc21
inactive: dose: 25.0 mg/kg/injection, schedule: Q01DX009 (ip), vehicle: Klucel (hydroxypropylcellulose) (HPC) 99 % of control | dose: 50.0 mg/kg/injection, schedule: Q01DX009 (ip), vehicle: Klucel (hydroxypropylcellulose) (HPC) 102 % of control | dose: 100.0 mg/kg/injection, schedule: Q01DX009 (ip), vehicle: Klucel (hydroxypropylcellulose) (HPC) 112 % of control

CCCCNC(=O)C(CONC(=O)OC)NC(C)=O (centres undefined)
inactive: [4] 101 % of control | [5] 97 % of control | [6] 101 % of control

C=C1C(=O)O[C@@H]2C[C@@H](C)[C@@H]3[C@@H](OC(C)=O)[C@@H](OC(C)=O)[C@H](OC(C)=O)[C@@]3(C)C[C@H]12
inactive: dose: 9.5 mg/kg/injection, schedule: Q01DX005 (ip), vehicle: Klucel (hydroxypropylcellulose) (HPC) 102 % of control | dose: 19.0 mg/kg/injection, schedule: Q01DX005 (ip), vehicle: Klucel (hydroxypropylcellulose) (HPC) 100 % of control | dose: 38.0 mg/kg/injection, schedule: Q01DX005 (ip), vehicle: Klucel (hydroxypropylcellulose) (HPC) 106 % of control | dose: 76.0 mg/kg/injection, schedule: Q01DX005 (ip), vehicle: Klucel (hydroxypropylcellulose) (HPC) 97 % of control

Cc1cc(Cl)ccc1N=C(N)N
inactive: [11] 100 % of control | [12] 101 % of control | [10] 99 % of control and 107 % of control

O=C(O)c1c[nH]c2cc(OCc3ccc(Cl)c(Cl)c3)ccc2c1=O
inactive: [11] 95 % of control | [12] 91 % of control | [10] 94 % of control | [13] 92 % of control

NNC(=O)CS(=O)(=O)Nc1ncccn1
inactive: [4] 100 % of control | [5] 100 % of control | [6] 100 % of control

CN(C)c1ccc(/C=C/C(=O)c2nc3ccccc3[nH]2)cc1
inactive: dose: 100.0 mg/kg/injection, schedule: Q04DX003 (ip), vehicle: Klucel (hydroxypropylcellulose) (HPC) 100 % of control | dose: 200.0 mg/kg/injection, schedule: Q04DX003 (ip), vehicle: Klucel (hydroxypropylcellulose) (HPC) 100 % of control | dose: 400.0 mg/kg/injection, schedule: Q04DX003 (ip), vehicle: Klucel (hydroxypropylcellulose) (HPC) 86 % of control

Nc1ccccc1C(=O)CCc1ccccc1C(=O)O
inactive: [7] 96 % of control | [8] 99 % of control | [9] 96 % of control

— PubChem BioAssay AID330 (DTP/NCI, 2004)
